This test concerns the target T1, stearoyl-CoA desaturase (SCD) (Rattus norvegicus, UniProt P07308).
T1 construct: from tissue; host or cells: liver microsomes of male Sprague Dawley rats, with SCD induced by a carbohydrate-rich diet
T1 sequence (P07308 1-358): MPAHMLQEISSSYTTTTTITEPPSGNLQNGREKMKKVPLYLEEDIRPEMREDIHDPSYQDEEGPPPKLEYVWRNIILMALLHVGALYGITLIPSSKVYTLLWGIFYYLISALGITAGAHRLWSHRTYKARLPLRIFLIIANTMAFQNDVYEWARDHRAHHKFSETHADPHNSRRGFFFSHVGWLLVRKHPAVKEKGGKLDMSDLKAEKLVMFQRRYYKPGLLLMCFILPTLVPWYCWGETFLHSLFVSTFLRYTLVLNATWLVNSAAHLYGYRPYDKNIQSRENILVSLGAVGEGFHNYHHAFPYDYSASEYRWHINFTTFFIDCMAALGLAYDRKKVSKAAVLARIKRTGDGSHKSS
In words: SCD assay, rat liver microsomes with [3H]stearoyl CoA (adapted from Talamo and Bloch). Conditions: second table, same SCD assay. The format is biochemical. From the text:
The identification of compounds of the invention as SCD inhibitors was readily accomplished using the SCD enzyme and microsomal assay procedure described in Talamo and Bloch (1969) Analytical Biochemistry 29:300-304.
The rat liver microsomes were collected according to the procedure described in Ozols (1990) Methods Enzm, 182:225.
Male Spraque Dawley Rats were placed on regimented fasting protocol for one week to stimulate SCD enzymatic activity. 48-hour periods were alternated between feeding and fasting to induce and down-regulate SCD activity with SCD activity being induced via carbohydrate rich diet prior to liver perfusion and collection.
The rats were anesthetized with Isoflurane inhalation anesthetic, the liver perfused with cold phosphate buffered saline (PBS), weighed, and chilled in cold homogenization buffer (250 mM sucrose, 10 mM Tris, 1 mM EDTA, pH 7.6.
The livers were finely minced and placed in homogenization tube. 40 mL of homogenization buffer was added to the homogenization tube and the liver homogenized and centrifuged in a pre-chilled SLA-600 TC at 800G rotor for 10 min at 4° C.
Following centrifugation, the supernatant was collected and the pellet removed and discarded. This supernatant was then centrifuged at 10,000G for 35 minutes. Following centrifugation, the supernatant was collected and the pellet discarded. The supernatant was further centrifuged in a pre-chilled 45-Ti rotor at 130,000 G (41,000 RPM) for 90 minutes at 4° C.
The supernatant was then aspirated off and the collected microsomal pellet washed in 25 mL of Glycerol PBS (1×PBS 7.4, 20% Glycerol) and resuspended in 4-5 volumes of Glycerol PBS.
The protein concentration of the microsomal preparation was determined by BCA assay (Pierce) and the microsomes were aliquoted and stored at −80° C.
Biobeads were ground to a smaller size in a mortar and pestle and filtered through 300 μM mesh and then resuspended in 3.6% TCA.
SCD was determined in the desaturase assay buffer. This assay buffer contained 0.1 M Tris buffer, pH 7.2, 2 mM NADH, 4.8 mM ATP, 0.5 mM CoA, 4.8 mM MgCl2, and 0.1% BSA.
1 μl of each compound of Formula I was added to an assay plate by a low volume (0.5-10 μL) multichannel pipette. A DMSO control was also prepared. The microsomes were quickly thawed and added to assay buffer so that a concentration of 1-0.1 mg/ml was achieved (0.5-0.05 mg/ml assay final). 50 μl of the microsome suspension in assay buffer was then added into each well in the compound assay plate, the plate was covered, and the microsomes preincubated with the compounds for 30-60 minutes on the orbital shaker, 50-75 rpm, at room temperature.
After preincubation, the reaction was initiated by the addition of 50 μl of substrate solution (20 μM Stearoyl CoA, [3H]Stearoyl CoA, 74nCi) to the preincubated microsomes/compound suspensions in MilliQ (Millipore) H2O. The reaction mixtures were then incubated for 45 minutes on the orbital shaker at 50-75 rpm at room temperature.
The reaction was terminated by the addition of 10 μl of 21% trichloroacetic acid (TCA) to the reaction mixture followed incubation on the orbital shaker for 30 minutes at 50-75 rpm at room temperature followed by centrifugation for 5 minutes at 3700 rpm.
50 μl of a 6% Bio-Bead suspension in H2O was added to the reaction mixture and the assay plate was sealed. The Bio-Bead mixture was incubated on the orbital shaker for 1 to 24 hours, 100-150 rpm at room temperature, and then the mixture was centrifuged at 2000g for 5 minutes to pellet the Bio-Beads.
25 μl of the supernatant was harvested from each well and transferred to a detection plate. 100 μl of OptiPhase SuperMix scinitillation cocktail (containing sufficient NaOH to neutralize the TCA) was added and the solutions mixed by vigorous shaking (300-400 rpm) for 5 minutes at room temperature.
(Liver microsomes are vesicles of endoplasmic reticulum, rich in cytochrome P450 enzymes.)

The IC50 is the concentration that gives 50% inhibition. A lower IC50 goes with higher potency. Consider `COc1ccc(-c2nc3ccc(NCc4cccc(C(F)(F)F)c4)nc3n(NC(=O)COC(C)=O)c2=O)cc1` [compound 45, 2-(2-(4-methoxyphenyl)-3-oxo-6-(3-(trifluoromethyl)benzylamino)pyrido[2,3-b]pyrazin-4(3H)-ylamino)-2-oxoethyl acetate], for which the half-maximal inhibitory concentration (IC50) amounted to 6.7 µM. For `CC(=O)NCCn1c(=O)c(C)nc2cc(NCc3ccccc3)cnc21` [compound 43, N-(2-(7-(benzylamino)-2-methyl-3-oxopyrido[2,3-b]pyrazin-4(3H)-yl)ethyl)acetamide] the value was 1.1 µM. For “3-(6-(3,4-dichlorobenzylamino)-2-(4-methoxyphenyl)-3-oxopyrido[2,3-b]pyrazin-4(3H)-yl)-N-methylpropanamide [compound 12]” the value was 0.095 µM; for “(±)-2,3-dihydroxy-N-(2-(3-methyl-2-oxo-7-(3-(trifluoromethyl)benzylamino)-quinoxalin-1(2H)-yl)ethyl)-propanamide [compound 59]”, 0.36 µM.

`COc1ccc(-c2nc3cc(NC(=O)OCc4ccccc4)ccc3n(CCNC(C)=O)c2=O)cc1` [compound 46, benzyl 1-(2-acetamidoethyl)-3-(4-methoxyphenyl)-2-oxo-1,2-dihydroquinoxalin-6-ylcarbamate] returned an IC50 of 20 µM.

As to `Cc1nc2ccc(NCc3cccc(C(F)(F)F)c3)cc2n(CCNC(N)=O)c1=O` [compound 53, 1-(2-(3-methyl-2-oxo-7-(3-(trifluoromethyl)benzylamino)quinoxalin-1(2H)-yl)ethyl)urea], the 50% inhibitory concentration (IC50) is 0.015 µM.

`COc1ccc(-c2nc3ccc(NCc4ccc(Cl)c(Cl)c4)nc3n(CCNC(=O)CNC(C)=O)c2=O)cc1` [compound 41, 2-acetamido-N-(2-(6-(3,4-dichlorobenzylamino)-2-(4-methoxyphenyl)-3-oxopyrido[2,3-b]pyrazin-4(3H)-yl)ethyl)acetamide] showed a concentration for half-maximal inhibition (IC50) of 1.1 µM. Against the preceding molecule, the IC50 is about 73-fold higher.

Regarding `COc1ccc(-c2nc3ccc(NCc4cccc(C(F)(F)F)n4)nc3n(CCNC(C)=O)c2=O)cc1` [compound 3, N-(2-(2-(4-methoxyphenyl)-3-oxo-6-((6-(trifluoromethyl)pyridin-2-yl)methylamino)pyrido[2,3-b]pyrazin-4(3H)-yl)ethyl)acetamide], half-maximal inhibition (IC50) required 10 µM. In the case of “N-(2-(6-(2-chlorobenzylamino)-2-(4-methoxyphenyl)-3-oxopyrido[2,3-b]pyrazin-4(3H)-yl)ethyl)acetamide [compound 1]”, the IC50 was determined as 4.1 µM. As for `COc1ccc(-c2nc3ccc(NCc4ccc(C)c(C)c4)cc3n(CCNC(C)=O)c2=O)cc1` [compound 57, N-(2-(7-(3,4-dimethylbenzylamino)-3-(4-methoxyphenyl)-2-oxoquinoxalin-1(2H)-yl)ethyl)acetamide], the figure is 0.026 µM; as for `CC(=O)NCCn1c(=O)c(-c2ccc(C)cc2)nc2ccc(NCc3cccc(C(F)(F)F)c3)nc21` [compound 26, N-(2-(3-oxo-2-p-tolyl-6-(3-(trifluoromethyl)benzylamino)pyrido[2,3-b]pyrazin-4(3H)-yl)ethyl)acetamide], 0.11 µM.

Values taken from patent US7893066B2, “Pyridol[2,3-B]pyrazinones for use as stearoyl CoA desaturase inhibitors” (Gilead Palo Alto, Inc., priority 2006, dated 2011).
